For one series, the system named is C-28/I2 chondrocytes. Description: toxicity screen to establish maximum tolerable concentrations in chondrocytes. The text has this: A clonal derivative of ATCC-certified normal chondrocytes was used for a study to determine cytokine expression. The parent line was originally derived from costal cartilage of an adolescent person. The cell line used is C-28/I2 accession number CVCL_0187. The cells were immortalized via retroviral vector-mediated SV40 Large T antigen expression. Cells were confirmed negative for mycoplasma contamination and genotyped by STR analysis to verify cell identity. This cell line is widely used as a model for studying normal and pathological cartilage repair mechanisms and inflammation.
The cells were cultured at 37° C. with 5% CO2, DMEM/F12 media supplemented with 10% heat-inactivated fetal bovine serum. Antimicrobials were not added to the media. Cells were maintained between 40 and 80% confluency to avoid terminal differentiation. Cells used for the experiments had been passaged no more than ten times prior to each experiment.
A series of pilot studies were performed to design the final full-scale experiment. First, a toxicity screen for each test compound was performed to establish maximum tolerable concentrations in this model system. Second, assays were run to establish the optimal means of inducing a pro-inflammatory state in the cell culture system. Third, conditions were tested to set the most favorable dilution scheme in order to maintain samples within the linear range of detection for each analyte. To establish the test concentrations for each test compound, chondrocytes were treated with a serial dilution of each compound, for 24 and 48 hours under serum free conditions. Oleocanthal or CBD were tested at two-fold dilutions down from a concentration of 50 micromolar (μM).

Series [1] has as its system IL-13 production by chondrocytes (C-28/I2). Description: cytokine array of conditioned media from IL1β-stimulated chondrocytes: IL-13. In kind it is cell-based, human. The following applies: Moderate level (2.00 μM) of CBD alone, IL1β 10 ng/ml, 24 hours, no serum, FIG. 2. The text has this:
Antimicrobials were not added to the media.
Three wells were utilized per sample condition.

Data on three compounds can be found in patent US12576094B2, “Combination cannabinoid-phenylethanoid formulation for treatment of inflammation and methods related thereto” (Canole LLC, priority 2019, dated 2026).

`C=C(C)[C@@H]1CCC(C)=C[C@H]1c1c(O)cc(CCCCC)cc1O` [CBD, cannabidiol]: the maximum tolerable concentration in the series with C-28/I2 chondrocytes (chondrocytes, 24 hours post-treatment, serum free) amounted to 6 µM. For the same compound, in series [1], the “generated amount of IL13” value is “greatly reduced”.
In the series with C-28/I2 chondrocytes (human, 24 h), `C/C=C(/C=O)[C@@H](CC=O)CC(=O)OCCc1ccc(O)cc1` [oleocanthal] came in with a maximum tolerable concentration of 6 µM.
The compound `O=C(O)c1cccnc1` [niacin, niacin/nicotinic acid] came in with a maximum tolerable concentration in the series with C-28/I2 chondrocytes (human, 24 h) of 1000 µM.
